Experimental data: the NIST ThermoML archive (doi:10.1016/j.jct.2015.04.028)
Numbers after ± are expanded uncertainties.

Conditions: Gas, Vibrating wire viscometry

## N#N [nitrogen]
296.26 K, 99.9 kPa
  viscosity: 0.01766 ± 0.00091 mPa·s
296.26 K, 312.6 kPa
  viscosity: 0.01773 ± 0.00091 mPa·s
297.05 K, 500.9 kPa
  viscosity: 0.01783 ± 0.00091 mPa·s
297.05 K, 700.9 kPa
  viscosity: 0.01789 ± 0.00091 mPa·s
322.56 K, 109.8 kPa
  viscosity: 0.01884 ± 0.00092 mPa·s
322.56 K, 307.3 kPa
  viscosity: 0.01892 ± 0.00092 mPa·s
322.56 K, 500.7 kPa
  viscosity: 0.01899 ± 0.00092 mPa·s
322.56 K, 701.2 kPa
  viscosity: 0.01904 ± 0.00092 mPa·s
373.12 K, 111.2 kPa
  viscosity: 0.02104 ± 0.00094 mPa·s
373.12 K, 300.6 kPa
  viscosity: 0.02109 ± 0.00094 mPa·s
373.12 K, 503.2 kPa
  viscosity: 0.02119 ± 0.00094 mPa·s
373.12 K, 694.5 kPa
  viscosity: 0.02121 ± 0.00094 mPa·s
472.1 K, 110.2 kPa
  viscosity: 0.02498 ± 0.00097 mPa·s
472.1 K, 309.7 kPa
  viscosity: 0.025 ± 0.00097 mPa·s
472.1 K, 505.8 kPa
  viscosity: 0.02509 ± 0.00097 mPa·s
472.1 K, 703.4 kPa
  viscosity: 0.02513 ± 0.00097 mPa·s
572.98 K, 111.7 kPa
  viscosity: 0.02864 ± 0.001 mPa·s
572.98 K, 316.1 kPa
  viscosity: 0.02867 ± 0.001 mPa·s
572.98 K, 502 kPa
  viscosity: 0.02871 ± 0.001 mPa·s
572.98 K, 703.4 kPa
  viscosity: 0.02868 ± 0.001 mPa·s

## [HH] [hydrogen]
296.26 K, 102.8 kPa
  viscosity: 0.0089 ± 0.00084 mPa·s
296.26 K, 305.3 kPa
  viscosity: 0.00897 ± 0.00084 mPa·s
296.26 K, 501 kPa
  viscosity: 0.009 ± 0.00084 mPa·s
296.26 K, 700.6 kPa
  viscosity: 0.00902 ± 0.00084 mPa·s
322.56 K, 111 kPa
  viscosity: 0.00941 ± 0.00085 mPa·s
322.56 K, 302.4 kPa
  viscosity: 0.00946 ± 0.00085 mPa·s
322.56 K, 502 kPa
  viscosity: 0.00949 ± 0.00085 mPa·s
322.56 K, 698 kPa
  viscosity: 0.00951 ± 0.00085 mPa·s
373.12 K, 111.6 kPa
  viscosity: 0.01041 ± 0.00086 mPa·s
373.12 K, 301.2 kPa
  viscosity: 0.01047 ± 0.00086 mPa·s
373.12 K, 503.1 kPa
  viscosity: 0.01048 ± 0.00086 mPa·s
373.12 K, 701.4 kPa
  viscosity: 0.0105 ± 0.00086 mPa·s
472.13 K, 111.4 kPa
  viscosity: 0.01209 ± 0.00087 mPa·s
472.13 K, 298.9 kPa
  viscosity: 0.01214 ± 0.00087 mPa·s
472.13 K, 500.1 kPa
  viscosity: 0.01215 ± 0.00087 mPa·s
472.13 K, 701.1 kPa
  viscosity: 0.01216 ± 0.00087 mPa·s
573.48 K, 98.9 kPa
  viscosity: 0.01416 ± 0.00088 mPa·s
573.48 K, 298.2 kPa
  viscosity: 0.0142 ± 0.00088 mPa·s
573.48 K, 503 kPa
  viscosity: 0.01427 ± 0.00089 mPa·s
573.48 K, 701.6 kPa
  viscosity: 0.01425 ± 0.00088 mPa·s

## [He] [helium]
296.26 K, 100.3 kPa
  viscosity: 0.01964 ± 0.00093 mPa·s
296.26 K, 332.1 kPa
  viscosity: 0.01983 ± 0.00093 mPa·s
296.26 K, 500.3 kPa
  viscosity: 0.01979 ± 0.00093 mPa·s
296.26 K, 716 kPa
  viscosity: 0.01982 ± 0.00093 mPa·s
322.56 K, 110.1 kPa
  viscosity: 0.02084 ± 0.00094 mPa·s
322.56 K, 306.5 kPa
  viscosity: 0.02096 ± 0.00094 mPa·s
322.56 K, 521.2 kPa
  viscosity: 0.02101 ± 0.00094 mPa·s
322.56 K, 723 kPa
  viscosity: 0.021 ± 0.00094 mPa·s
373.12 K, 111.6 kPa
  viscosity: 0.02307 ± 0.00095 mPa·s
373.12 K, 307.1 kPa
  viscosity: 0.02314 ± 0.00095 mPa·s
373.12 K, 504.2 kPa
  viscosity: 0.02318 ± 0.00095 mPa·s
373.12 K, 698.5 kPa
  viscosity: 0.02322 ± 0.00095 mPa·s
472.08 K, 111.5 kPa
  viscosity: 0.02712 ± 0.00098 mPa·s
472.08 K, 313.7 kPa
  viscosity: 0.02727 ± 0.00099 mPa·s
472.08 K, 504.9 kPa
  viscosity: 0.02725 ± 0.00099 mPa·s
472.08 K, 717.7 kPa
  viscosity: 0.02732 ± 0.00099 mPa·s
572.96 K, 111.1 kPa
  viscosity: 0.03107 ± 0.001 mPa·s
572.96 K, 309.7 kPa
  viscosity: 0.03119 ± 0.001 mPa·s
572.96 K, 514.3 kPa
  viscosity: 0.03119 ± 0.001 mPa·s
572.96 K, 721.7 kPa
  viscosity: 0.03123 ± 0.001 mPa·s
